Laboratory results reported in paper PMC5896380, “Selective imaging of cathepsin L in breast cancer by fluorescent activity-based probes” (Chemical Science, 2018).
Values belong to the compound of their own block, whether it stands above or below them.

Assays:
[1] = test system: cathepsins L and B in MDA-MB-231 cells; experiment: Cathepsin labeling in MDA-MB-231 cells by SDS-PAGE and western blotting; format: cell-based, human
Protocol: Low passage MDA-MB-231 cells were seeded on 12-well plates (200 000 cells per well per 1 mL of medium) and cultured in Dulbecco’s Modification of Eagle’s Medium (DMEM) supplemented with 10% fetal bovine serum, 2 mM of L-glutamine, 100 units per mL penicillin and 100 μg mL^–1 streptomycin. […] To control for non-specific binding, the cells were preincubated with E64d (25 μM) for 2 hours prior to probe addition. At various time points, the medium was aspirated and the cells were gently washed twice with 1 mL of Dulbecco’s Phosphate-Buffered Saline (DPBS) and then trypsinized, harvested and centrifuged for 10 min (500 × g). The supernatants were removed by aspiration and the pellets washed with 1 mL of DPBS and centrifuged (5 min, 500 × g). The supernatants were again removed and the pellets solubilized in 100 μL 1× SDS/DTT and then boiled for 5 min. Each sample was then cooled to room temperature and sonicated (Branson Sonifier 250, duty cycle: 50, output control: 5, cycles: 5) and then 30 μL was loaded on 4–12% Bis-Tris Plus gels and run for 30 min at 200 V with a SDS-PAGE Standards/Broad Range ladder. Proteins were transferred to a 0.2 μm nitrocellulose membrane for 1 hour at 10 V and then Ponceau staining was used to verify equal loading. Membranes were blocked with 2.5% BSA in Tris-buffered saline/0.1% v/v Tween 20 (TBS-T) for 1 hour at room temperature. Cathepsins L and B were detected by primary goat anti-hCathepsin L (R&D, AF952, 0.2 mg mL^–1, 1 : 2000) and goat anti-hCathepsin B (R&D, AF953, 0.2 mg mL^–1, 1 : 1000) antibodies, respectively, followed by incubation with a secondary antibody (IRDye® 800CW, LI-COR, donkey anti-goat, 1 : 10 000). The membranes were incubated with primary antibodies for 2 hours, and with (fluorescent) secondary antibodies for 30 min (both in TBS-T at room temperature). The fluorescence was read at 700 nm (Cyanine5; excitation 685 nm) and 800 nm (secondary antibody; excitation 785 nm) using an Odyssey fluorescence imaging system (LI-COR). The images were analyzed using Image Studio software.

cathepsin K = molecular target: T1, cathepsin K (Homo sapiens, UniProt P43235); experiment: kobs/I of activity-based probes, cathepsin K; format: biochemical; settings: Fig. 6A; pseudo-first order, probe at least 5-fold excess over cathepsin, 100 μM ACC substrate; pH 5.5, 37 °C; triplicate, SD below 20%
T1 construct: made in house
T1 sequence (P43235 115-329): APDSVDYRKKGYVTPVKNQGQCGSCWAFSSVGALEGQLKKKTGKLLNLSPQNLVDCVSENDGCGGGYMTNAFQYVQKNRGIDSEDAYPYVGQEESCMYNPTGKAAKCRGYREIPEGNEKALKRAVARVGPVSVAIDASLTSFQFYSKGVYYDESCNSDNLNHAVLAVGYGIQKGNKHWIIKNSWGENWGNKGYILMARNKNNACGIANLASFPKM
Protocol: (§1) All kinetic experiments were performed using fMax (Molecular Devices) and CLARIOStar (BMG LABTECH) spectrofluorimeters operating in kinetic mode using 96-well plates. ACC-labeled substrates were screened using 355 nm and 460 nm wavelengths (excitation and emission, respectively). […] The buffer was prepared at room temperature and the enzyme kinetic studies were performed at 37 °C.
(§2) For the kinetic studies, five recombinant human cathepsins (B, L, V, K and S) were expressed and purified and active site titrated using an E64 inhibitor. The kobs/I parameter was measured under pseudo-first order kinetic conditions, as described.[40] The cathepsin of interest was mixed with various concentrations of probe (at least 5-fold excess over cathepsin) and 100 μM ACC-fluorescence substrate. The experiments were repeated at least three times, and the results are presented as an average. The SDs were below 20%.

cathepsin V = molecular target: T2, cathepsin V (Homo sapiens, UniProt O60911); experiment: kobs/I of activity-based probes, cathepsin V; format: biochemical; settings: Fig. 6A; pseudo-first order, probe at least 5-fold excess over cathepsin, 100 μM ACC substrate; pH 5.5, 37 °C; triplicate, SD below 20%
T2 construct: made in house
Protocol: as §1, §2

[2] = test system: cathepsins L and B in HEK293T cells; experiment: Cathepsin labeling by Cy5 probes in HEK293T cells, immunoblotting; format: cell-based, human; settings: 1 μM probe, 0–18 hours
Protocol: Figure S3 Cathepsins labeling by two Cy5-tagged probes in HEK293T cells. Panel A. Cells (100,000/well/mL) were incubated with MP-cL3 (1µM) probe for 0-18 hours. Next, cells were harvested and subjected for Western blotting. MP-cL3 probe is very selective toward cathepsin L even after 18 hours of incubation (only residual cathepsin B activity is detected).
MDA-MB-231, thus mostly heavy chain of cathepsin L is labeled. Panel B and Panel C. Cells (100,000/well/mL) were incubated with pan-specific MP-pc1 (1µ M) probe for 0-18 hours. Next, cells were harvested and subjected […]
(1 picture or pasted object on this page, not shown here)

[3] = test system: cathepsins L, V, B, S and K; experiment: Labeling of recombinant cathepsins by Cy5 probes, SDS-PAGE; format: biochemical, human; settings: cathepsins 10 nM or 100 nM, probe/enzyme ratio 0.2, 1, 5 and 25, 30 min, Cy5 scan
Protocol: In experiment A, the probe concentrations were 2 nM, 10 nM, 50 nM and 250 nM, while in experiment B the probe concentrations were 20 nM, 100 nM, 500 nM and 2.5 μM. The reaction volume for all the samples was 200 μL. After 30 min, 100 μL of 3× SDS/DTT was added to the reaction mixtures, the samples were boiled for 5 min, and then 20 μL of the sample was run on 4–12% Bis-Tris Plus 15-well gels for 30 min at 200 V with 2 μL of PageRuler™ Prestained Protein Ladder. The gels were then directly scanned at 700 nm (red channel for Cy5 detection; excitation 685 nm) using an Odyssey fluorescence imaging system (LI-COR) and the images were analyzed using Image Studio software.

cathepsin B = molecular target: T3, cathepsin B (Homo sapiens, UniProt P07858); experiment: kobs/I of activity-based probes, cathepsin B; format: biochemical; settings: Fig. 6A; pseudo-first order, probe at least 5-fold excess over cathepsin, 100 μM ACC substrate; pH 5.5, 37 °C; triplicate, SD below 20%
T3 construct: made in house
Protocol: as §1, §2

cathepsin L = molecular target: T4, cathepsin L (Homo sapiens, UniProt P07711); experiment: kobs/I of activity-based probes, cathepsin L; format: biochemical; settings: Fig. 6A; pseudo-first order, probe at least 5-fold excess over cathepsin, 100 μM ACC substrate; pH 5.5, 37 °C; triplicate, SD below 20%
T4 construct: made in house
Protocol: as §1, §2

cathepsin S = molecular target: T5, cathepsin S (Homo sapiens, UniProt P25774); experiment: kobs/I of activity-based probes, cathepsin S; format: biochemical; settings: Fig. 6A; pseudo-first order, probe at least 5-fold excess over cathepsin, 100 μM ACC substrate; pH 5.5, 37 °C; triplicate, SD below 20%
T5 construct: made in house
Protocol: as §1, §2

[4] = test system: HEK293T cells overexpressing cathepsin L; settings: probes 5 μM, 18 hours; streptavidin magnetic beads; immunoblotting
Protocol: To evaluate MP-cL1 and MP-cL2 selectivity, 250 000 HEK293T cells overexpressing cathepsin L were plated and treated with probes and inhibitors as described above. Streptavidin-bound magnetic beads were prepared in separate tubes according to the manufacturer’s guidelines (Pierce™ Streptavidin Magnetic Beads, Thermo Scientific). Briefly, 50 μL beads were washed with sample lysis buffer and then the lysates were added. Tubes were incubated at room temperature on a rocking platform for 2 hours. The beads were then extensively washed with 50 mM Tris-buffered saline containing 0.1% Tween-20 and collected between each washing step. The beads were then re-suspended in 1× SDS loading buffer at a final volume of 100 μL, and the samples were placed at 95 °C and prepared for immunoblotting as described above to detect biotinylated proteins in the lysates, as well as in the unbound and eluted fractions. To confirm cathepsin L/B selectivity, we seeded HEK293T cells as described above. The probes were added at a 5 μM final concentration and incubated for 18 hours before the cells were harvested and lysed to isolate biotinylated proteins using streptavidin magnetic beads, as described above. The lysates plus the unbound and eluting fractions were then evaluated to detect cathepsin B (in-house mouse polyclonal Ab;[51] dilution 1 : 1000) and cathepsin L (Abcam ab62710).

[5] = test system: HEK293T cathepsin L-transfected cells; settings: probes 0–10 μM incubated with cells up to 24 hours; streptavidin–HRP blot
Protocol: To evaluate probe uptake, 250 000 HEK293T cells transfected with pcDNA3:ppCatL were seeded into 6-well plates and incubated with various concentrations of bMP-cL1 and bMP-cL2 (0–10 μM) for up to 24 hours. In control experiments the cells were preincubated with 25 μM E-64d, a pan-cathepsin inhibitor, for 2 hours prior to probe addition. After incubation samples were collected and immunoblotted. Biotinylated proteins were detected as described above.

T2 sequence (O60911 114-334): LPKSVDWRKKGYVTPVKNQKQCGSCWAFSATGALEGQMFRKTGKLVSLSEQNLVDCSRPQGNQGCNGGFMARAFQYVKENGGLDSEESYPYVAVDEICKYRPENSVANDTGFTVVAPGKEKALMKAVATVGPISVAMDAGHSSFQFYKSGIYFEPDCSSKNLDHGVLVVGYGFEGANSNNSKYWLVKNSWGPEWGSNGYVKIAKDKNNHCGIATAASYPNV
T5 sequence (P25774 115-331): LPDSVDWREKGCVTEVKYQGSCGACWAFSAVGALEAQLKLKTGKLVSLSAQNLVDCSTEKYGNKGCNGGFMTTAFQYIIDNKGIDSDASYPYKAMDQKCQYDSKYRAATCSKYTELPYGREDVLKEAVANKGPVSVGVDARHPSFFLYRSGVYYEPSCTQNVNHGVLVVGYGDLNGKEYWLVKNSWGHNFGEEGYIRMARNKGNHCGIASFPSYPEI
T4 sequence (P07711 114-333): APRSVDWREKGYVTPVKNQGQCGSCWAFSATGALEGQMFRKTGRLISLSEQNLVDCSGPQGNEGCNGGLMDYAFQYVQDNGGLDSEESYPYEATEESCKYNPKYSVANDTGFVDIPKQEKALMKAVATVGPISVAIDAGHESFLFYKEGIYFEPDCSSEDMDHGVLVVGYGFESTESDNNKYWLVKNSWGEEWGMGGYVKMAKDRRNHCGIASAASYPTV

Compound: CCOC(=O)[C@H]1O[C@@H]1C(=O)N[C@@H](CC(C)C)C(=O)NCCC(C)C [E64d, reference compound]
effect of pre-incubation on cathepsin labeling by probe ([1]; 25 μM, 2 hours prior to probe addition, MDA-MB-231 cells): blocked all cysteine cathepsin activity

kobs/I Cath-K (cathepsin K): 30,150 M^-1s^-1
kobs/I Cath-V (cathepsin V): 53,200 M^-1s^-1
kobs/I Cath-B (cathepsin B): 265,000 M^-1s^-1
kobs/I Cath-L (cathepsin L): 47,500 M^-1s^-1
kobs/I Cath-S (cathepsin S): 202,500 M^-1s^-1
Compound: Cy5-Ala-Arg-Leu-Arg-AOMK [MP-pc1, Cy5-labeled broad spectrum (pan-specific) cathepsin probe]
cathepsins labeled in HEK293T cells [2]: labeled both cathepsins L (25 kDa and 30 kDa) and B (30 kDa)
cathepsins labeled in MDA-MB-231 cells ([1]; 1 μM probe, 0–18 hours, antibody overlay): bound mostly to cathepsin B
labeling of recombinant cathepsins L, V, B, S and K [3]: can label cathepsins L, V, B and S (10 nM) even at a 1 : 1 ratio

Compound: biotin-6-ahx-His-DThr-Phe(F5)-Arg-AOMK [MP-cL1]
cross-reactivity with cathepsin B in pulldown eluting fractions [4]: only minor cross-reactivity
lowest probe concentration giving a signal in the cathepsin MW range [5]: 100 nM

Compound: biotin-6-ahx-His-DThr-Phe(F5)-Lys-AOMK [MP-cL2]
cross-reactivity with cathepsin B in pulldown eluting fractions [4]: only minor cross-reactivity
lowest probe concentration giving a signal in the cathepsin MW range [5]: 100 nM
